The text below walks through data of patent publication US8633224B2, “Hemiasterlin derivatives and uses thereof in the treatment of cancer” (Eisai Co., Ltd., priority 2002, dated 2014).

In one data set the test system is human cancer cells. Kind of data set: in vitro and in vivo screening panel (growth inhibition, MDR, cytotoxicity, mouse serum stability, mitotic block reversibility, tumor xenograft). Conditions: properties (i)-(vii) of b364/b365. Here is the method:
In certain embodiments, compounds of the invention were tested for in vitro and in vivo activity. Screening methods included standard in vitro cell growth inhibition assays using a panel of human cancer cell lines, a U937 (ATCC accession number CRL 1593) mitotic block reversibility assay, mouse serum stability assay, MDR assay, and cytotoxicity assay. In certain other embodiments, compounds of the invention were evaluated in tumor xenograft in vivo growth inhibition assays.
Cultured human cancer cells (including breast, prostate, colon, lung, leukemia, lymphoma and other) were plated in 96-well plates and grown in the continuous presence of test compounds for 72 or 96 hours. The human cell lines used in this cell growth inhibition assay, include, but are not limited to, the following solid tumor cell lines and non-solid tumor cell lines: DLD-1 colon cancer cells (ATCC accession number CCL-221), DU 145 prostate cancer cells (ATCC accession number HTB-81), H460 non small cell lung cancer, HCT-15 colon cancer cells (ATCC accession number CCL-225), HEL erythroleukemia cells, HL-60 promyelocytic leukemia cells (ATCC accession number CCL-240), K562 leukemia (ATCC accession number CCL-243), LOX melanoma, MDA-MB-435 breast cancer cells, U937 lymphoma cells (ATCC accession number CRL 1593), PANC-1 pancreatic cancer (ATCC accession number CRL-1469), HCC-2998 colon cancer (NCI-Frederick Cancer DCTD Tumor/Cell Line Repository), HCT 116 colon cancer (ATCC accession number CCL-247), HT-29 colon cancer (ATCC accession number HTB-38), LoVo colon cancer (ATCC accession number CCL-229), SW-480 colon cancer (ATCC accession number CCL-228), SW-620 colon cancer (ATCC accession number CCL-227) and COLO-205 colon cancer (ATCC accession number CCL-222). For monolayer cultures, growth was assessed using modifications (Amin et al, Cancer Res., 47: 6040-6045, 1987) of a methylene blue-based microculture assay (Finlay et al, Anal. Biochem., 139: 272-277, 1984). Absorbances at 620 and 405 nm were measured on a Titertek Multiscan MCC/340 plate reader and absorbances at 405 nm were subtracted from absorbances at 620 nm. For suspension cultures, growth was assessed using a 3-(4,5-dimethylthiazol-2-yl)-2,5-diphenyl tetrazolium bromide-based assay (Mosmann et al, J. Immunol. Methods, 65: 55-63, 1983) modified as follows. After 4 days of incubation with test compounds, sterile-filtered 3-(4,5-dimethylthiazol-2-yl)-2,5-diphenyl tetrazolium bromide was added to each well (final concentration, 0.5 mg/ml), and plates were incubated at 37° C. for 4 h. Acid-isopropanol (0.1 N HCl in isopropanol, […]) was then added to each well, and the resultant formazan crystals were dis-solved by gentle mixing. Absorbances at 540 nm were measured on a Titertek Multiscan MCC/340 plate reader.
Briefly, U937 (ATCC accession number […]) were exposed to various concentration of compounds for 12 hours. The compounds were washed away and the cells were allowed to recover for an additional 10 hours. The cells were collected by centrifugation and fixed overnight in 70% ethanol. The cells were washed in PBS, incubated with RNase A and stained with propidium iodide. Single channel flow cytometry was performed on a Becton Dickinson FACScan; the collection and analysis of data were performed using Becton Dickinson CELLQuest software. Doublet events were eliminated from analyses by proper gating on FL2-W/FL2-A primary plots before histogram analysis of DNA content (measured as FL2-A).
This is a modification of the standard cell growth inhibition assays described above. Two cultured human cancer cell lines were used: human uterine sarcoma MDR negative MES-SA cells (ATCC accession number CRL-1976) and human uterine sarcoma MDR-positive MES-SA/Dx5 cells (ATCC accession number CRL-1977). Cells were plated in a 96-well microtiter plates at a density of 7500 cells/well. The cells were incubated in the presence or absence of test compounds for 96 hours.
For the compound `C/C(=C\[C@H](C(C)C)N(C)C(=O)[C@@H](NC(=O)[C@H]1CCCCN1C(C)C(C)C)C(C)(C)C)C(=O)O` (single isomer, unassigned) [ER-808662], the “desired properties (growth inhibition IC50, resistance ratio, cytotoxicity in non-dividing normal cells, mouse serum stability, mitotic block reversibility, tumor regression, tumor growth inhibition)” value is listed as “exhibiting desired properties”. As to `CCC(C)N1CCCCC1C(=O)NC(C(=O)N(C)[C@H](/C=C(\C)C(=O)O)C(C)C)C(C)(C)C` (stereo in doubt) [ER-808368], the “desired properties (growth inhibition IC50, resistance ratio, cytotoxicity in non-dividing normal cells, mouse serum stability, mitotic block reversibility, tumor regression, tumor growth inhibition)” value is “exhibiting desired properties”. On the same count and under the same terms, next, `CCC(C)N1CCCCC1C(=O)NC(C(=O)N(C)[C@H](/C=C(\C)C(=O)O)C(C)C)C(C)C` (stereo in doubt) [ER-808824]: “exhibiting desired properties”; `CN[C@H](C(=O)N[C@H](C(=O)N(C)[C@H](/C=C(\C)C(=O)N1CCC[C@H]1C(=O)OC)C(C)C)C(C)(C)C)C(C)(C)c1ccccc1` [ER-805736]: “exhibiting desired properties”. On to `CN[C@H](C(=O)N[C@H](C(=O)N(C)[C@H](/C=C(\C)C(=O)O)C(C)C)C(C)(C)C)C(C)(C)c1ccc(OCc2ccccc2)cc1` [ER-805913], for which the “desired properties (growth inhibition IC50, resistance ratio, cytotoxicity in non-dividing normal cells, mouse serum stability, mitotic block reversibility, tumor regression, tumor growth inhibition)” value was “exhibiting desired properties”. Consider `CN[C@H](C(=O)N[C@H](C(=O)N(C)[C@H](CN(C)CC(=O)N1CCC[C@H]1C(=O)OC)C(C)C)C(C)(C)C)C(C)(C)c1ccccc1` [ER-806925], for which the “desired properties (growth inhibition IC50, resistance ratio, cytotoxicity in non-dividing normal cells, mouse serum stability, mitotic block reversibility, tumor regression, tumor growth inhibition)” value was “exhibiting desired properties”. In the case of `C/C(=C\[C@H](C(C)C)N(C)C(=O)[C@@H](NC(=O)[C@@H]1CCCCN1C)C(C)(C)C)C(=O)O` [ER-807102], the “desired properties (growth inhibition IC50, resistance ratio, cytotoxicity in non-dividing normal cells, mouse serum stability, mitotic block reversibility, tumor regression, tumor growth inhibition)” value is given as “exhibiting desired properties”. Take `CN[C@H](C(=O)N[C@H](C(=O)N(C)[C@H](CN1CCC[C@H]1C(=O)N1CCC[C@H]1C(N)=O)C(C)C)C(C)(C)C)C(C)(C)c1ccccc1` [ER-807328]: the “desired properties (growth inhibition IC50, resistance ratio, cytotoxicity in non-dividing normal cells, mouse serum stability, mitotic block reversibility, tumor regression, tumor growth inhibition)” value is “exhibiting desired properties”. The same measure, in the same setting: next, `CCC(CC)(NC)C(=O)N[C@H](C(=O)N(C)[C@H](/C=C(\C)C(=O)O)C(C)C)C(C)(C)C` [ER-807850]: “exhibiting desired properties”.

Take `CC(C)OC(=O)[C@@H]1CCCN1C(=O)[C@@H]1CCCN1C[C@H](C(C)C)N(C)C(=O)[C@@H](NC(=O)[C@H]1CCCCN1C)C(C)(C)C` [ER-807904]: the “desired properties (growth inhibition IC50, resistance ratio, cytotoxicity in non-dividing normal cells, mouse serum stability, mitotic block reversibility, tumor regression, tumor growth inhibition)” value is “exhibiting desired properties”. The same measure, in the same setting: with `C/C(=C\[C@H](C(C)C)N(C)C(=O)[C@@H](NC(=O)[C@H]1CCCCN1C(C)C)C(C)(C)C)C(=O)O` [ER-807974] the entry was “exhibiting desired properties”.

Another data set deals with human lung carcinoma, human colon carcinoma and human melanoma.
Assay: not given
Conditions: cited from earlier work.
For the compound `CN[C@H](C(=O)N[C@H](C(=O)N(C)[C@H](/C=C(\C)C(=O)O)C(C)C)C(C)(C)C)C(C)(C)c1cn(C)c2ccccc12` [Hemiasterlin], the “antitumor activity against several cell lines” value is given as “exhibited antitumor activity”.
